Test results taken from patent publication US20210198277A1, “AMINE-SUBSTITUTED ARYL OR HETEROARYL COMPOUNDS” (Epizyme, Inc., priority 2016, published 2021).

The molecules below were run against T1, EHMT2 (Homo sapiens, UniProt Q96KQ7) (assay: MDA-MB-231 H3K9me2 in-cell Western assay (EHMT2 ICW)). Details: Table VI; read-out: EHMT2 ICW IC50.
T1 construct: host or cells: MDA-MB-231
T1 sequence (Q96KQ7 1-1210): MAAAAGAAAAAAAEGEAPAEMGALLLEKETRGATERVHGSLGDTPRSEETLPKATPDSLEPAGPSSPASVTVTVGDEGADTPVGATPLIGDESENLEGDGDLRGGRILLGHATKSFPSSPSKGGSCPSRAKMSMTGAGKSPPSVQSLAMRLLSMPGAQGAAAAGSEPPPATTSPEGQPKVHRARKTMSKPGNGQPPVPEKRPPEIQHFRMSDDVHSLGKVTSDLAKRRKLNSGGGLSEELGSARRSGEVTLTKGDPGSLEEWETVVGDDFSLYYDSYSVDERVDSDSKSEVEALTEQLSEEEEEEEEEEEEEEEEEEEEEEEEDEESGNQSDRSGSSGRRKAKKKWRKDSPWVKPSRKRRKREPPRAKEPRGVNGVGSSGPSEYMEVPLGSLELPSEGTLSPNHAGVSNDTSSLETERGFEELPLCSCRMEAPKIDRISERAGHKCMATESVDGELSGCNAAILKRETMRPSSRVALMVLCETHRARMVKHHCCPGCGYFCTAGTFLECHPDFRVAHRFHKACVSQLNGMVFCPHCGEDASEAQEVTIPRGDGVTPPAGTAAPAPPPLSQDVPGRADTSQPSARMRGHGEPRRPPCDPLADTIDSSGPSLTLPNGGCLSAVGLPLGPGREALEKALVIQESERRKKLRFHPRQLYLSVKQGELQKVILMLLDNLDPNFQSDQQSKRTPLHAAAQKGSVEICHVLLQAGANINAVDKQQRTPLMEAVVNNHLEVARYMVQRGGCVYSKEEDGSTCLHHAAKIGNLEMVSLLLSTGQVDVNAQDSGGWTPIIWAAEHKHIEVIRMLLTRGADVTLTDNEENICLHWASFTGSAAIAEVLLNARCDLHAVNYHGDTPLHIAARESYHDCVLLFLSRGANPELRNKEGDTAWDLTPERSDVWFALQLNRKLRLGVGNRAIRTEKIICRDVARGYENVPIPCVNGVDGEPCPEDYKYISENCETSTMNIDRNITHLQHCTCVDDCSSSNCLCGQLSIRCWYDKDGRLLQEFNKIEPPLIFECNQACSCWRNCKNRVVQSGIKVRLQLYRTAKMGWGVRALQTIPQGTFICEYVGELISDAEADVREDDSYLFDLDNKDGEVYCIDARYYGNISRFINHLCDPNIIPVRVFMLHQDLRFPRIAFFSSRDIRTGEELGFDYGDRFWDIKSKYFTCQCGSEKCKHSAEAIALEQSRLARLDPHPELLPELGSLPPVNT
Type: cell-based
Summary of the method: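 Cells seeded at 3,000/well onto pre-dispensed compound; 30 min RT, then 48 h 37 °C/5% CO2. PFA fix, block, α-H3K9me2 1:800 o/n 4 °C, 800CW secondary + DRAQ5. Odyssey scan 700/800 nm; ratio → % inhibition → 4-parameter IC50.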

SMILES	IC50 [nM]
CCN1CCO[C@@H](COc2cc(Nc3nccc(NC)n3)ccc2OC)C1 [Compound 932]	> 10000
CNc1cc(C)nc(Nc2ccc(OC)c(C(=O)NC3CCN(C)CC3)c2)n1 [Compound 873]	> 10000
CNc1ccnc(Nc2ccc(OC)c(OC[C@H]3CN(C)CCO3)c2)n1 [Compound 931]	> 10000
COc1cnc(Nc2cccc3[nH]nnc23)cc1OCCCN1CCCC1 [Compound 619]	> 10000
CNc1cc(C)nc(Nc2ccc(CNC(=O)c3ccccc3)c(OC)c2)n1 [Compound 876]	> 10000
CNc1cc(C)nc(Nc2cnc(OC)c(OC[C@H](O)CN3CCCC3)c2)n1 [Compound 882]	1000 to 10000
CNc1cc(C)nc(Nc2c[nH]c(=O)c(OCCCN3CCCC3)c2)n1 [Compound 621]	> 10000
CNc1nc2cc(OCCCN3CCCC3)c(OC)cc2cc1F [Compound 897]	> 10000
CCN1CC(COc2cc3nc(NC)nc(C4CCN(C)CC4)c3cc2OC)C1 [Compound 951]	1000 to 10000
COc1cnc(Nc2cc(NCC3COC3)cnn2)cc1OCCCN1CCCC1 [Compound 894]	> 10000
CNc1cc(C)nc(Nc2cc(OCCCN3CCCC3)c3ncnn3c2)n1 [Compound 623]	1000 to 10000
CCN1CCO[C@H](COc2cc(Nc3nccc(NC)n3)ccc2OC)C1 [Compound 937]	> 10000
CNCCC(C)Oc1cc(Nc2nccc(NC)n2)ccc1OC (centres unmarked) [Compound 1011]	1000 to 10000
CNC[C@@H](O)COc1cc(Nc2nccc(NC)n2)cnc1OC [Compound 918]	1000 to 10000
CNc1cc(C)nc(Nc2ccc(OC)c(OCCCc3nc(Cl)c[nH]3)c2)n1 [Compound 890]	> 10000
CCN1CCC(O)(COc2cc(Nc3nccc(NC)n3)ccc2OC)C1 (centres unmarked) [Compound 1007]	> 10000
CNS(=O)(=O)CCNc1cc(C)nc(Nc2ccc(OC)c(OCCCN3CCCC3)c2)n1 [Compound 892]	1000 to 10000
CNc1cc(C)nc(Nc2ccc(OC)c(C(=O)NCc3ccccc3)c2)n1 [Compound 871]	> 10000
CNCCCOc1cc(Nc2nccc(NC)n2)ccc1OC [Compound 916]	1000 to 10000
CNc1ccnc(Nc2ccc(OC)c(OCC(C)(O)CN3CCC3)c2)n1 (centres unmarked) [Compound 1005]	1000 to 10000
COc1ccc(Nc2nc(C)cc(C3CCOCC3)n2)cc1OCCCN1CCCC1 [Compound 870]	> 10000
CNc1cc(C)nc(Nc2cc(OC[C@H](O)CN3CCCC3)c(OC)cn2)n1 [Compound 886]	> 10000
CNc1cc(C)nc(Nc2cc(OCCCN3CCCC3)c3[nH]nnc3c2)n1 [Compound 624]	1000 to 10000
CCN1CC(COc2cc(Nc3cccn4cnnc34)ncc2OC)C1 [Compound 620]	> 10000

SMILES	IC50 [nM]
CNc1ccnc(Nc2ccc(OC)c(OC[C@@H](O)CN3CCC3)c2)n1 [Compound 907]	1000 to 10000
CNCCCOc1cc(Nc2nccc(NC)n2)cnc1OC [Compound 917]	1000 to 10000
CNc1ccnc(Nc2ccc(OC)c(OC[C@H]3CNCCO3)c2)n1 [Compound 933]	> 10000
CNc1ccnc(Nc2ccc(OC)c(OC[C@@H](C)CN3CCC3)c2)n1 [Compound 943]	1000 to 10000
COc1cc2cc(C#N)c(C)nc2cc1OCCCN1CCCC1 [Compound 895]	> 10000
CNC[C@@H](COc1cc(Nc2nccc(NC)n2)ccc1OC)OC [Compound 922]	> 10000
CNc1cc(C)nc(Nc2cc(OCCCN3CCCC3)c3nncn3c2)n1 [Compound 622]	> 10000
CNc1ccnc(Nc2ccc(OC)c(OC[C@@H]3CN(C)CCO3)c2)n1 [Compound 936]	> 10000
CNc1cc(C)nc(Nc2cc(OC[C@@H](O)CN3CCCC3)c(OC)cn2)n1 [Compound 885]	> 10000
COc1ncc(Nc2nc(C)cc(NCC3COC3)n2)cc1OC[C@H](O)CN1CCCC1 [Compound 884]	> 10000
CNc1ccnc(Nc2ccc(OC)c(OC[C@@H](CN3CCCC3)OC)c2)n1 [Compound 919]	> 10000
CNC(=O)N1CC(CNc2cc(C)nc(Nc3cnc(OC)c(OCCCN4CCCC4)c3)n2)C1 [Compound 888]	> 10000
CNc1nc2cc(OCCCN3CCCC3)c(OC)cc2cc1Cl [Compound 903]	1000 to 10000
CNc1cc(C)nc(Nc2ccc(OC)c(OC[C@H](O)CN3CC(F)C3)c2)n1 [Compound 986]	1000 to 10000
CNc1cc(C)nc(Nc2ccc(C(=O)NCc3ccccc3)c(OC)c2)n1 [Compound 877]	> 10000
CNc1ccnc(Nc2ccc(OC)c(OCCC(C)N3CCC3)c2)n1 (centres unmarked) [Compound 1014]	1000 to 10000
CNc1cc(C)nc(Nc2ccc(OC)c(C#CCN3CCOCC3)c2)n1 [Compound 904]	> 10000
CCN1CC[C@@H](COc2cc(Nc3nc(C)cc4[nH]ncc34)ncc2OC)C1 [Compound 947]	1000 to 10000
COc1cc2cc(F)c(C)nc2cc1OCCCN1CCCC1 [Compound 896]	> 10000
CNc1ccnc(Nc2ccc(OC)c(OC[C@@H]3CNCCO3)c2)n1 [Compound 938]	> 10000
COc1cc2c(C3CCN(C)CC3)nc(N3CCCC3)nc2cc1OCCCN1CC(O)C1 [Compound 950]	1000 to 10000
CNC[C@H](COc1cc(Nc2nccc(NC)n2)ccc1OC)OC [Compound 921]	> 10000
CNc1cc(C)nc(Nc2ccc(OC)c(OC[C@H](O)CNC3CCC3)c2)n1 [Compound 962]	1000 to 10000
CNc1cc(C)nc(Nc2ccc(OC)c(OCCCc3nc(Cl)cn3C)c2)n1 [Compound 891]	> 10000

More lines, now with the values ahead:

IC50 [nM]	SMILES
< 100	CNc1cc(C2CCN([C@@H]3CCOC3)CC2)c2cc(OC)c(OCCCN3CCCC3)cc2n1 [Compound 866]
100 to 1000	CNC(=O)C1CCN(c2cc3nc(NC)cc(C)c3cc2OC)C1 (centres unmarked) [Compound 900]
100 to 1000	CNc1cc(C)nc(Nc2cnc(OC)c(OC[C@@H](O)CN3CCCC3)c2)n1 [Compound 881]
1000 to 10000	CNCC(C)COc1cc(Nc2nccc(NC)n2)ccc1OC (centres unmarked) [Compound 1009]
100 to 1000	CNc1cc(C)nc(Nc2cnc(OC)c(OCCCN3CCC3)c2)n1 [Compound 949]
100 to 1000	CNc1ccnc(Nc2ccc(OC)c(OC[C@H](O)CN3CCC3)c2)n1 [Compound 908]
100 to 1000	COc1ccc(Nc2nc(C)cc(NCCS(=O)(=O)N(C)C)n2)cc1OCCCN1CCCC1 [Compound 893]
100 to 1000	COc1cc2c(C3CCN(C)CC3)cc(N3CCCC3)nc2cc1OCCCN1CCCC1 [Compound 625]
100 to 1000	CCN1CC[C@@H](COc2cc(Nc3nccc(NC)n3)ccc2OC)C1 [Compound 927]
< 100	CNc1cc(C2CCN([C@H]3CCOC3)CC2)c2cc(OC)c(OCCCN3CCCC3)cc2n1 [Compound 867]
100 to 1000	CNc1cc(C2CCOCC2)c2cc(OC)c(OCCCN3CC(O)C3)cc2n1 [Compound 902]
100 to 1000	CNc1ccnc(Nc2ccc(OC)c(OC[C@H](C)CN3CCC3)c2)n1 [Compound 945]
100 to 1000	COc1cc2c(C3CCN([C@H]4CCOC4)CC3)cc(C)nc2cc1OCCCN1CCCC1 [Compound 864]
100 to 1000	CNc1ccnc(Nc2cnc(OC)c(OCCCN3CCC3)c2)n1 [Compound 914]
100 to 1000	CNc1ccnc(Nc2cnc(OC)c(OC[C@@H]3CCN(C)C3)c2)n1 [Compound 912]
100 to 1000	CNc1ccnc(Nc2ccc(OC)c(OC[C@H](CN3CCCC3)OC)c2)n1 [Compound 920]
100 to 1000	CNc1cc(C)nc(Nc2ccc(OC)c(OCC(O)CN3CCCC3)c2)n1 (stereo in doubt) [Compound 906, (2S)-1-(2-methoxy-5-[[4-methyl-6-(methylamino)pyrimidin-2-yl]amino]phenoxy)-3-(pyrrolidin-1-yl)propan-2-ol]
100 to 1000	CCN1CCC(O)(COc2cc(Nc3nccc(NC)n3)ccc2OC)C1 (centres unmarked) [Compound 1006]
< 100	CNc1ccnc(Nc2ccc(OC)c(OC[C@@H]3CCN(C4CC4)C3)c2)n1 [Compound 928]
100 to 1000	CNc1ccnc(Nc2cnc(OC)c(OC[C@@H]3CCN(C4CCC4)C3)n2)n1 [Compound 974]
< 100	CNc1cc(C)nc(Nc2ccc(OC)c(CNCCN3CCC3)c2)n1 [Compound 965]
100 to 1000	CCNc1cc(C2CCOCC2)c2cc(OC)c(OCCCN3CCCC3)cc2n1 [Compound 865]
100 to 1000	CNc1cc(C)nc(Nc2cnc(OC)c(OC[C@H](O)CN3CCC3)c2)n1 [Compound 963]
